Target: DNA gyrase (Escherichia coli, UniProt P0AES4+P0AES6)
Test: Enzyme Inhibition Assay
Description: The reactions were then started with the addition of 60 ng relaxed pBR322 plasmid DNA and continued for 45 min at 37° C. The reaction mixture contained 35 mM Tris.HCl (pH 7.5), 24 mM KCl, 1.8 mM spermidine, 4 mM MgCl2, 2 mM DTT, 6.5% (w/v) glycerol, 0.1 mg/mL BSA, and 1 mM ATP. The reaction was then stopped by addition of 0.75 L of Proteinase K (20 mg/mL) and 3 μL of 2% SDS and further incubated at 37° C. for 30 min. This was followed by the addition of 4 μL of STEB (40% (w/v) sucrose, 100 mM Tris-HCl pH8, 1 mM EDTA, 0.5 mg/ml Bromophenol Blue), and the supercoiled/relaxed forms of plasmid DNA were separated by agarose gel electrophoresis. The 1% agarose gels were run for 3 h at 4V/cm in 1×TAE (40 mM Tris, 20 mM Acetic acid, 1 mM EDTA). To visualize the DNA the gels were stained for 10 min with 0.7 g/mL ethidium bromide and excess dye was removed by several washes with water. IC50 were determined by quantifying the supercoiled and relaxed DNA in each of the reactions from a gel image by a densitometric method using the Quantity One Software (Bio-rad).

Row | SMILES | IC50 [nM]
1 | Cn1c(=O)ccc2ncc(OCCNC[C@H]3CN(c4ccc5c(n4)NC(=O)CO5)C(=O)O3)nc21 [US11590142, Compound 5] | 32
2 | Cn1c(=O)cnc2ccc(OCCNC[C@H]3CN(c4ccc5c(n4)NC(=O)CO5)C(=O)O3)nc21 [US11590142, Compound 3] | 47
